{
  "source": "patent US12637499B2",
  "about": "“Adrenomedullin analog, method for producing the same, and pharmaceutical use thereof” (priority 2020, dated 2026)",
  "key": {"in vitro [1]": {"assay": "in vitro", "experimental": "After the lapse of a predetermined time, a 30-μl portion was taken out of the reaction solution, transferred into 170 μl of 0.1% aqueous solution of trifluoroacetic acid (TFA), and stored at −80° C. until analysis.\nQuantitative analysis was performed for AM contained in the thus-obtained samples of a reaction mixture with serum or plasma by using specific fluoroimmunoassay (Tosoh Corporation) with two antibodies differing in their recognition sites. […] In the figure, the abscissa represents reaction time (min), and the ordinate represents concentration of AM (UM).\nIn the figure, the abscissa represents reaction time (min), and the ordinate represents concentration of AM or an AM analog (μM).\nIn the figure, the abscissa represents the type of AM or an AM analog, and the ordinate represents residual rates of AM or an AM analog (%)."}, "in vivo [2]": {"assay": "in vivo", "experimental": "Seven-week-old male Wistar rats were prepared, and grown with normal feeds. To determine plasma AM concentrations, 50 nmol/kg of AM or an AM analog was subcutaneously administered. A peripheral blood sample was collected from the tail vein into a Kantan tube® (containing heparin Na, Eiken Chemical Co., Ltd., Tochigi, Japan) at predetermined times (0, 15, 30, 60, and 120 minutes after administration). The tube was centrifuged at 2,000×g. Plasma was collected from the tube, and transferred into a test tube (containing 21 μg of aprotinin and 0.3 mg of EDTA-2Na) and stored. […] In the figure, the abscissa represents elapsed time after subcutaneous administration (hr), and the ordinate represents concentration in plasma of AM or an AM analog (pM). In addition, maximum concentrations in blood (Cmax) of AM or the AM analogs in rat plasma after subcutaneous administration were calculated."}, "[3]": {"conditions": "50 nmol/kg subcutaneous, Experiment VI", "procedure": "(§1) Eight-week-old male Wistar rats were purchased from Charles River Laboratories Japan, Inc. The rats were grown with normal feeds in the absence of specific pathogens under cycles of a 12-hour light period and a 12-hour dark period. […] To determine plasma AM concentrations, 50 nmol/kg of AM or an AM analog was subcutaneously administered. A peripheral blood sample was collected from the tail vein into a test tube (containing 21 μg of aprotinin and 0.3 mg of EDTA-2Na) at predetermined times (0, 15, 30, 60, and 120 minutes after administration). The test tube was centrifuged at 1,700×g to afford plasma."}, "in vivo [4]": {"assay": "in vivo", "conditions": "male, Wistar, rat, sc, 50 nmol/kg; for AUC: in vivo", "procedure": "as §1"}, "in vitro [5]": {"assay": "in vitro", "conditions": "Experiment VIII; 10^−7 M, 37° C.; 1 hour after the beginning of reaction", "experimental": "The stabilities of the AM analog peptides in serum were evaluated with the same procedure as in Experiment I except the following procedure. […] A reaction mixture containing 4 μL of phosphate buffer, 20 μL of human serum (Sigma-Aldrich Co. LLC, USA), and 14 μL of water was prepared. To the reaction mixture, 2 μL of AM or an AM analog peptide (2×10^−6 M, final concentration: 10^−7 M) was added, and reaction was initiated at 37° C. The reaction was terminated by addition of 160 μL of ELISA buffer to the reaction mixture 0, 1, or 4 hours after the beginning of reaction. […] In the figure, the abscissa represents reaction time (hr), and the ordinate represents concentration in serum of AM or an AM analog (%) represented as relative values to concentration of AM or an AM analog at the beginning of reaction (i.e., 0 hours after the beginning of reaction)."}, "[6]": {"molecular_target": "AM type 1 receptor (AMI receptor) (UniProt Q16602 23-461; O60895 43-175, limits assumed)", "sequence (Q16602 23-461 limits assumed, chain 1 of 2)": "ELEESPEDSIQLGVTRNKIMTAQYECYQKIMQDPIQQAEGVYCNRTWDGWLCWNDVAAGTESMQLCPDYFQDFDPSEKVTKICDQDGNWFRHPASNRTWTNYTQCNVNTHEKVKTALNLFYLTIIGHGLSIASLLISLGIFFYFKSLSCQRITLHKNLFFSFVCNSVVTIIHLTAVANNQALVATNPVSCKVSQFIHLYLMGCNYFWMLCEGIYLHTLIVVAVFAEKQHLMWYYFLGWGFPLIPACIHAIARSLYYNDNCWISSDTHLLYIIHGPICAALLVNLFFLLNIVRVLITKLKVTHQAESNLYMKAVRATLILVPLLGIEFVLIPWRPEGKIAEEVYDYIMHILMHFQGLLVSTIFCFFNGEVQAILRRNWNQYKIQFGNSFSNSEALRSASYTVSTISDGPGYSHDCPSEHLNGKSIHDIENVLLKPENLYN", "sequence (O60895 43-175 limits assumed, chain 2 of 2)": "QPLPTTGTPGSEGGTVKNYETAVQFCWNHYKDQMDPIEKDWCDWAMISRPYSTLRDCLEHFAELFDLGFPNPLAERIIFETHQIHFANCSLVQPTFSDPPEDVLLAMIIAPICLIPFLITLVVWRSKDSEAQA", "assay": "cell-based or functional assay"}},
  "note": "Like-named read-outs stand apart in the source and are kept apart here. Where a SMILES comes first, the peptide text is derived from it. Bridges are numbered along the chain shown (N, C = ends). Where no end group is shown, it is not given here.",
  "data": [
    {"molecule": "CC[C@H](C)[C@H](NC(=O)[C@H](CCC(N)=O)NC(=O)[C@H](Cc1c[nH]cn1)NC(=O)[C@H](C)NC(=O)[C@H](CC(C)C)NC(=O)[C@H](CCCCN)NC(=O)[C@H](CCC(N)=O)NC(=O)[C@@H](NC(=O)[C@@H](NC(=O)[C@@H]1CSSC[C@H](NC(=O)CNC(=O)[C@H](Cc2ccccc2)NC(=O)[C@@H](N)CO)C(=O)N[C@@H](CCCNC(=N)N)C(=O)N[C@@H](Cc2ccccc2)C(=O)NCC(=O)N[C@@H]([C@@H](C)O)C(=O)N1)[C@@H](C)O)C(C)C)C(=O)N[C@@H](Cc1ccc(O)cc1)C(=O)N[C@@H](CCC(N)=O)C(=O)N[C@@H](Cc1ccccc1)C(=O)N[C@H](C(=O)N[C@@H](CC(=O)O)C(=O)N[C@@H](CCCCN)C(=O)N[C@@H](CC(=O)O)C(=O)N[C@@H](CCCCN)C(=O)N[C@@H](CC(=O)O)C(=O)N[C@@H](CC(N)=O)C(=O)N[C@H](C(=O)N[C@@H](C)C(=O)N1CCC[C@H]1C(=O)N[C@@H](C)C(=O)N[C@@H](CO)C(=O)N[C@@H](CCCCN)C(=O)N[C@H](C(=O)N[C@@H](CO)C(=O)N1CCC[C@H]1C(=O)N[C@@H](CCC(N)=O)C(=O)NCC(=O)N[C@@H](Cc1ccc(O)cc1)C(N)=O)[C@@H](C)CC)C(C)C)[C@@H](C)O", "note": "[[Ala-44]hAM(13-52), SFGCRFGTCTVQKLAHQIYQFTDKDKDNVAPASKISPQGY-CONH2] (H-SFGCRFGTCTVQKLAHQIYQFTDKDKDNVAPASKISPQGY-NH2; disulfide 4-9; N-terminus assumed)", "values": [
      {"measurement": "change in amount with the lapse of reaction time in reaction mixture with serum", "setting": "in vitro [1]; Experiment IV, up to 240 minutes", "value": "almost no decrease or only slight decrease in amount"},
      {"measurement": "remaining at 4 h", "setting": "in vitro [1]; serum, pH 7.1", "value": 96.4, "unit": "%"},
      {"measurement": "detection in rat plasma after subcutaneous administration", "setting": "in vivo [2]; 50 nmol/kg subcutaneous, Experiment X", "value": "detected in rat plasma 15 minutes after administration"},
      {"measurement": "Cmax", "setting": "in vivo [2]; male, Wistar, rat, in vivo, sc, 50 nmol/kg", "value": 0.777, "unit": "nM"},
      {"measurement": "detection in rat plasma after subcutaneous administration", "setting": "[3]", "value": "detected in rat plasma 15 minutes after administration"},
      {"measurement": "Cmax relative to that of hAM(1-52)", "setting": "[3]; rat", "value": "≥ 100", "unit": "times"},
      {"measurement": "AUC", "setting": "in vivo [4]", "value": 0.578, "unit": "nM·h"},
      {"measurement": "Cmax", "setting": "in vivo [4]; plasma", "value": 1.17, "unit": "nM"},
      {"measurement": "half-life", "setting": "in vivo [4]; plasma", "value": 82.4, "unit": "min"}
    ]},
    {"molecule": "CC[C@H](C)[C@H](NC(=O)[C@H](CCC(N)=O)NC(=O)[C@H](Cc1c[nH]cn1)NC(=O)[C@H](C)NC(=O)[C@H](CC(C)C)NC(=O)[C@H](CCCCN)NC(=O)[C@H](CCC(N)=O)NC(=O)[C@@H](NC(=O)[C@@H](NC(=O)[C@@H]1CSSC[C@H](NC(=O)CNC(=O)[C@H](Cc2ccccc2)NC(=O)[C@@H](N)CO)C(=O)N[C@@H](CCCNC(=N)N)C(=O)N[C@@H](Cc2ccccc2)C(=O)NCC(=O)N[C@@H]([C@@H](C)O)C(=O)N1)[C@@H](C)O)C(C)C)C(=O)N[C@@H](Cc1ccc(O)cc1)C(=O)N[C@@H](CCC(N)=O)C(=O)N[C@@H](Cc1ccccc1)C(=O)N[C@H](C(=O)N[C@@H](CC(=O)O)C(=O)N[C@@H](CCCCN)C(=O)N[C@@H](CC(=O)O)C(=O)N[C@@H](CCCCN)C(=O)N[C@@H](CC(=O)O)C(=O)N[C@@H](CC(N)=O)C(=O)N[C@H](C(=O)N[C@@H](C)C(=O)N1CCC[C@H]1C(=O)N[C@@H](CCCNC(=N)N)C(=O)N[C@@H](CO)C(=O)N[C@@H](CCCCN)C(=O)N[C@H](C(=O)N[C@@H](CO)C(=O)N1CCC[C@H]1C(=O)N[C@@H](CCC(N)=O)C(=O)NCC(=O)N[C@@H](Cc1ccc(O)cc1)C(N)=O)[C@@H](C)CC)C(C)C)[C@@H](C)O", "note": "[hAM(13-52), SFGCRFGTCTVQKLAHQIYQFTDKDKDNVAPRSKISPQGY-CONH2, reference compound]", "values": [
      {"measurement": "concentration of AM or AM analog in reaction mixture with serum", "setting": "in vitro [1]; Experiment IV, 240 minutes after the beginning of reaction", "value": "below the detection limit"},
      {"measurement": "residual rate in reaction mixture with serum", "setting": "in vitro [1]; Experiment IV, 240 minutes vs 0 minutes after the beginning of reaction", "value": 0.2, "unit": "%"},
      {"measurement": "presence in reaction mixture with human serum", "setting": "in vitro [5]", "value": "substantially disappeared"},
      {"measurement": "detection in rat plasma after subcutaneous administration", "setting": "[3]", "value": "hardly detected"},
      {"measurement": "AUC", "setting": "in vivo [4]", "value": 0.0832, "unit": "nM·h"},
      {"measurement": "Cmax", "setting": "in vivo [4]; plasma", "value": 0.165, "unit": "nM"}
    ]},
    {"molecule": "SFGCRFGTCTVQKLAHQIYQFTDKDKDNVAPSKISPQGY-NH2 (disulfide 4-9; N-terminus assumed; SMILES CC[C@H](C)[C@H](NC(=O)[C@H](CCC(N)=O)NC(=O)[C@H](Cc1c[nH]cn1)NC(=O)[C@H](C)NC(=O)[C@H](CC(C)C)NC(=O)[C@H](CCCCN)NC(=O)[C@H](CCC(N)=O)NC(=O)[C@@H](NC(=O)[C@@H](NC(=O)[C@@H]1CSSC[C@H](NC(=O)CNC(=O)[C@H](Cc2ccccc2)NC(=O)[C@@H](N)CO)C(=O)N[C@@H](CCCNC(=N)N)C(=O)N[C@@H](Cc2ccccc2)C(=O)NCC(=O)N[C@@H]([C@@H](C)O)C(=O)N1)[C@@H](C)O)C(C)C)C(=O)N[C@@H](Cc1ccc(O)cc1)C(=O)N[C@@H](CCC(N)=O)C(=O)N[C@@H](Cc1ccccc1)C(=O)N[C@H](C(=O)N[C@@H](CC(=O)O)C(=O)N[C@@H](CCCCN)C(=O)N[C@@H](CC(=O)O)C(=O)N[C@@H](CCCCN)C(=O)N[C@@H](CC(=O)O)C(=O)N[C@@H](CC(N)=O)C(=O)N[C@H](C(=O)N[C@@H](C)C(=O)N1CCC[C@H]1C(=O)N[C@@H](CO)C(=O)N[C@@H](CCCCN)C(=O)N[C@H](C(=O)N[C@@H](CO)C(=O)N1CCC[C@H]1C(=O)N[C@@H](CCC(N)=O)C(=O)NCC(=O)N[C@@H](Cc1ccc(O)cc1)C(N)=O)[C@@H](C)CC)C(C)C)[C@@H](C)O)", "note": "[[des-Arg-44]hAM(13-52)]", "values": [
      {"measurement": "logarithmic values of 50%-effective concentration (pEC50) for intracellular cAMP concentration-increasing activity", "setting": "[6]", "value": 8.71, "unit": "pEC50"}
    ]},
    {"molecule": "SFGCRFGTCTVQKLAHQIYQFTDKDKDNVAPGSKISPQGY-NH2 (disulfide 4-9; N-terminus assumed; SMILES CC[C@H](C)[C@H](NC(=O)[C@H](CCC(N)=O)NC(=O)[C@H](Cc1c[nH]cn1)NC(=O)[C@H](C)NC(=O)[C@H](CC(C)C)NC(=O)[C@H](CCCCN)NC(=O)[C@H](CCC(N)=O)NC(=O)[C@@H](NC(=O)[C@@H](NC(=O)[C@@H]1CSSC[C@H](NC(=O)CNC(=O)[C@H](Cc2ccccc2)NC(=O)[C@@H](N)CO)C(=O)N[C@@H](CCCNC(=N)N)C(=O)N[C@@H](Cc2ccccc2)C(=O)NCC(=O)N[C@@H]([C@@H](C)O)C(=O)N1)[C@@H](C)O)C(C)C)C(=O)N[C@@H](Cc1ccc(O)cc1)C(=O)N[C@@H](CCC(N)=O)C(=O)N[C@@H](Cc1ccccc1)C(=O)N[C@H](C(=O)N[C@@H](CC(=O)O)C(=O)N[C@@H](CCCCN)C(=O)N[C@@H](CC(=O)O)C(=O)N[C@@H](CCCCN)C(=O)N[C@@H](CC(=O)O)C(=O)N[C@@H](CC(N)=O)C(=O)N[C@H](C(=O)N[C@@H](C)C(=O)N1CCC[C@H]1C(=O)NCC(=O)N[C@@H](CO)C(=O)N[C@@H](CCCCN)C(=O)N[C@H](C(=O)N[C@@H](CO)C(=O)N1CCC[C@H]1C(=O)N[C@@H](CCC(N)=O)C(=O)NCC(=O)N[C@@H](Cc1ccc(O)cc1)C(N)=O)[C@@H](C)CC)C(C)C)[C@@H](C)O)", "note": "[[Gly-44]hAM(13-52)]", "values": [
      {"measurement": "logarithmic values of 50%-effective concentration (pEC50) for intracellular cAMP concentration-increasing activity", "setting": "[6]", "value": 7.96, "unit": "pEC50"}
    ]},
    {"molecule": "SFGCRFGTCTVQKLAHQIYQFTDKDKDNVAPFSKISPQGY-NH2 (disulfide 4-9; N-terminus assumed; SMILES CC[C@H](C)[C@H](NC(=O)[C@H](CCC(N)=O)NC(=O)[C@H](Cc1c[nH]cn1)NC(=O)[C@H](C)NC(=O)[C@H](CC(C)C)NC(=O)[C@H](CCCCN)NC(=O)[C@H](CCC(N)=O)NC(=O)[C@@H](NC(=O)[C@@H](NC(=O)[C@@H]1CSSC[C@H](NC(=O)CNC(=O)[C@H](Cc2ccccc2)NC(=O)[C@@H](N)CO)C(=O)N[C@@H](CCCNC(=N)N)C(=O)N[C@@H](Cc2ccccc2)C(=O)NCC(=O)N[C@@H]([C@@H](C)O)C(=O)N1)[C@@H](C)O)C(C)C)C(=O)N[C@@H](Cc1ccc(O)cc1)C(=O)N[C@@H](CCC(N)=O)C(=O)N[C@@H](Cc1ccccc1)C(=O)N[C@H](C(=O)N[C@@H](CC(=O)O)C(=O)N[C@@H](CCCCN)C(=O)N[C@@H](CC(=O)O)C(=O)N[C@@H](CCCCN)C(=O)N[C@@H](CC(=O)O)C(=O)N[C@@H](CC(N)=O)C(=O)N[C@H](C(=O)N[C@@H](C)C(=O)N1CCC[C@H]1C(=O)N[C@@H](Cc1ccccc1)C(=O)N[C@@H](CO)C(=O)N[C@@H](CCCCN)C(=O)N[C@H](C(=O)N[C@@H](CO)C(=O)N1CCC[C@H]1C(=O)N[C@@H](CCC(N)=O)C(=O)NCC(=O)N[C@@H](Cc1ccc(O)cc1)C(N)=O)[C@@H](C)CC)C(C)C)[C@@H](C)O)", "note": "[[Phe-44]hAM(13-52)]", "values": [
      {"measurement": "logarithmic values of 50%-effective concentration (pEC50) for intracellular cAMP concentration-increasing activity", "setting": "[6]", "value": 8.29, "unit": "pEC50"}
    ]}
  ]
}
